From ChEMBL document CHEMBL5050844 (2019)

What was measured:
[1] = Induction of anti-CD3/CD28 antibodies-stimulated human T cell activation at 0.3 uM assessed fold increase in CD25 expression measured by ELISA assay; assay type: functional, T cell line
[2] = Induction of anti-CD3/CD28 antibodies-stimulated human T cell activation at 1 uM assessed fold increase in IL-2 secretion measured by ELISA assay; assay type: functional, T cell line
[3] = molecular target: E3 ubiquitin-protein ligase CBL-B (Homo sapiens, UniProt Q13191); experiment: Inhibition of N-terminal Avi-tagged human CBL-B (36 to 427 residues) incubated with 60 nM Src kinase for 1.5 hrs followed by incubation with fluorescently labeled UbcH5B-Ub for 1 hr and measured by TR-FRET assay; assay type: single protein
E3 ubiquitin-protein ligase CBL-B, sequence (Q13191 whole entry, the tested form may be a part): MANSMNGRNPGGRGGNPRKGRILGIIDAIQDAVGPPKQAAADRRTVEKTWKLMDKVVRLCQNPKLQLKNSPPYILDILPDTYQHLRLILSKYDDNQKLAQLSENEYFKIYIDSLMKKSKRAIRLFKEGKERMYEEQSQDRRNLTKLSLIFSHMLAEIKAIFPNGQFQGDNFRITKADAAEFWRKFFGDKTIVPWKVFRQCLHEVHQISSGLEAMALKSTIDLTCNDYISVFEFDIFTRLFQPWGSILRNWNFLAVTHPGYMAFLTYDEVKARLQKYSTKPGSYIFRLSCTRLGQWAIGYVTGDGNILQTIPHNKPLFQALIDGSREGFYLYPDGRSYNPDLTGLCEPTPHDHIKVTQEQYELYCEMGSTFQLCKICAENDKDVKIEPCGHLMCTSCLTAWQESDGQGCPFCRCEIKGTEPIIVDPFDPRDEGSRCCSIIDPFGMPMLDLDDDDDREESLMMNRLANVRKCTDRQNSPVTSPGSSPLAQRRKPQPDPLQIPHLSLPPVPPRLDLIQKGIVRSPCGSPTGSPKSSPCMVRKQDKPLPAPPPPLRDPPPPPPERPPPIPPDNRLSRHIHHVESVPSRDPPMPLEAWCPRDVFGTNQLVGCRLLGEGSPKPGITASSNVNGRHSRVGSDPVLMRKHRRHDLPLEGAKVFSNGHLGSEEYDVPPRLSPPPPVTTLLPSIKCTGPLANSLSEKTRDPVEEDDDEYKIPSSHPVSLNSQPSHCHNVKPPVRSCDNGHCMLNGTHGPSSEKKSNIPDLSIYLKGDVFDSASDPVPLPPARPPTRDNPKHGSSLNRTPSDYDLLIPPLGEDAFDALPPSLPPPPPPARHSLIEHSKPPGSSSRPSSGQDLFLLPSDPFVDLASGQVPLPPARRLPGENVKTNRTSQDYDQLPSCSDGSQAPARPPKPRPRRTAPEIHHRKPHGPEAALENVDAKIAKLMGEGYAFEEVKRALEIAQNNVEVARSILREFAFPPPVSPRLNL

[4] = Induction of anti-CD3/CD28 antibodies-stimulated human T cell activation at 1 uM assessed fold increase in CD25 expression measured by ELISA assay; assay type: functional, T cell line
[5] = Induction of anti-CD3 antibodies-stimulated human T cell activation at 1 uM assessed fold increase in IL-2 secretion measured by ELISA assay; assay type: functional, T cell line; further: reference of the scale not given here
[6] = Induction of anti-CD3/CD28 antibodies-stimulated human T cell activation at 0.3 uM assessed fold increase in IL-2 secretion measured by ELISA assay; assay type: functional, T cell line
[7] = Induction of anti-CD3 antibodies-stimulated human T cell activation at 1 uM assessed fold increase in CD25 expression measured by ELISA assay; assay type: functional, T cell line; further: reference of the scale not given here

| Structure (SMILES) | IC50 [3] [nM] | fold change (FC) [1] | fold change (FC) [2] | fold change (FC) [4] | fold change (FC) [5] | fold change (FC) [6] | fold change (FC) [7] | FC [1] | FC [2] | FC [4] | FC [5] | FC [6] | FC [7] |
| --- | --- | --- | --- | --- | --- | --- | --- | --- | --- | --- | --- | --- | --- |
| CN1CC2CC1CN2c1cc2c(c(C(F)(F)F)c1)CN(c1cccc([C@@](C)(F)C(F)(F)c3nncn3C)c1)C2=O (single isomer, unassigned; 562) | < 100 | 1.51 | >=7.5 | 1.51 | >=0.201 | 5 | >=1.001 |  |  |  |  |  |  |
| CN(C)Cc1cc(C(=O)Nc2cccc(C3(Cc4nncn4C)COC3)c2)nc(C2CC2)n1 | < 100 | 1.31 | >=7.5 | 1.31 | 0.101 | 2.51 | >=1.001 |  |  |  |  |  |  |
| Cn1cnnc1CC1(c2cccc(N3Cc4c(cc(C5=CCOC5)cc4C(F)(F)F)C3=O)c2)COC1 | < 100 | 1.01 | 2.51 | 1.31 | 0.101 | 2.51 | 0.801 |  |  |  |  |  |  |
| COc1cccc2c1CN(Cc1cc3c(c(C(F)(F)F)c1)CN(c1cccc(C4(Cc5nncn5C)COC4)c1)C3=O)C2 | < 100 | 1.51 | >=7.5 | 1.51 | >=0.201 | 5 | >=1.001 |  |  |  |  |  |  |
| Cc1cc(C(=O)Nc2cccc(C3(Cc4nocc4C)COC3)c2)nc(C2CC2)n1 | < 100 | 1.31 | >=7.5 | 1.31 | >=0.201 | >=7.5 | >=1.001 |  |  |  |  |  |  |
| Cn1cnnc1CC1(c2cccc(NC(=O)c3cc(CN4C[C@@H]5[C@H](C4)C5(F)F)cc(C4CC4)n3)c2)COC1 | < 100 | 1.31 | >=7.5 | 1.31 | >=0.201 | >=7.5 | >=1.001 |  |  |  |  |  |  |
| Cc1cc(C(=O)Nc2cccc(C3(Cc4nncn4C)COC3)c2)n2ncc(C)c2n1 | < 100 | 1.01 | 2.51 | 1.01 | 0.051 | 2.51 | 0.801 |  |  |  |  |  |  |
| Cn1cnnc1CC1(c2cccc(N3Cc4c(cc(CN5C6CCCC5CC6)cc4C(F)(F)F)C3=O)c2)COC1 | < 100 | >=1.76 | >=7.5 | >=1.76 | >=0.201 | >=7.5 | >=1.001 |  |  |  |  |  |  |
| Cn1cnnc1CC1(c2cccc(N3Cc4c(cc(C5CN6CCC5CC6)cc4C(F)(F)F)C3=O)c2)COC1 (stereo unspecified) | < 100 | 1.01 | 5 | 1.01 | <=0.05 | 2.51 | 0.601 |  |  |  |  |  |  |
| Cn1cnnc1CC1(c2cccc(N3Cc4c(cc(C5=CCCOC5)cc4C(F)(F)F)C3=O)c2)COC1 | < 100 |  |  |  |  |  |  | 1.01 | 2.51 | 1.01 | 0.101 | 2.51 | 0.801 |
| Cn1cnnc1CC1(c2cccc(N3Cc4c(cc(OC(F)F)cc4C(F)(F)F)C3=O)c2)COC1 | < 100 | 1.01 | 5 | 1.31 | 0.051 | 2.51 | 0.801 |  |  |  |  |  |  |
| CN1CC2CCC1CN2c1cc2c(c(C(F)(F)F)c1)CN(c1cccc([C@@](C)(F)C(F)(F)c3nncn3C)c1)C2=O (stereo partly specified) | < 100 | 1.31 | 2.51 | 1.31 | 0.101 | 1.01 | >=1.001 |  |  |  |  |  |  |
| Cn1cnnc1CC1(c2cccc(N3Cc4c(cc(CN5CCCC5)nc4C4CC4)C3=O)c2)COC1 | < 100 | 1.01 | 2.51 | 1.01 | <=0.05 | 1.01 | <=0.6 |  |  |  |  |  |  |

Continued, in another order:

| IC50 [3] [nM] | Structure (SMILES) | fold change (FC) [1] | fold change (FC) [2] | fold change (FC) [4] | fold change (FC) [5] | fold change (FC) [6] | fold change (FC) [7] | FC [1] | FC [2] | FC [4] | FC [5] | FC [6] | FC [7] |
| --- | --- | --- | --- | --- | --- | --- | --- | --- | --- | --- | --- | --- | --- |
| < 100 | Cn1cnnc1CC1(c2cccc(N3Cc4c(cc(CC5CCCO5)cc4C(F)(F)F)C3=O)c2)COC1 (stereo unspecified) | 1.01 | >=7.5 | 1.01 | 0.101 | 2.51 | 0.801 |  |  |  |  |  |  |
| < 100 | Cn1cnnc1CC1(c2cccc(N3Cc4c(cc(CN5CCCCC(F)C5)cc4C(F)(F)F)C3=O)c2)COC1 (stereo unspecified) | 1.31 | >=7.5 | 1.31 | >=0.201 | 5 | >=1.001 |  |  |  |  |  |  |
| < 100 | Cn1cnnc1CC1(c2cccc(N3Cc4c(cc(CN5CC[C@@H](CO)C(F)(F)C5)cc4C(F)(F)F)C3=O)c2)COC1 | 1.31 | >=7.5 | 1.31 | 0.101 | 2.51 | 0.801 |  |  |  |  |  |  |
| < 100 | CC[C@H](c1cc2c(c(C(F)(F)F)c1)CN(c1cccc(C3(Cc4nncn4C)COC3)c1)C2=O)N1CC[C@H](F)C1 | 1.51 | >=7.5 | 1.51 | >=0.201 | >=7.5 | >=1.001 |  |  |  |  |  |  |
| < 100 | Cn1cnnc1CC1(c2cccc(N3Cc4c(cc(CN5CC(F)C5(C)C)cc4C(F)(F)F)C3=O)c2)COC1 (stereo unspecified) | 1.31 | 5 | 1.31 | 0.101 | 2.51 | >=1.001 |  |  |  |  |  |  |
| < 100 | Cn1cnnc1CC1(c2cccc(N3Cc4c(cc(N5CCC(C(F)F)C5)cc4C(F)(F)F)C3=O)c2)COC1 (stereo unspecified) | 1.01 | 2.51 | 1.01 | <=0.05 | 1.01 | 0.601 |  |  |  |  |  |  |
| < 100 | C[C@@H]1CCN(Cc2cc3c(c(C(F)(F)F)c2)CN(c2cccc(C4(Cc5nncn5C)COC4)c2)C3=O)C[C@H]1F (relative stereo) | 1.31 | >=7.5 | 1.51 | >=0.201 | >=7.5 | >=1.001 |  |  |  |  |  |  |
| < 100 | Cn1cnnc1CC1(c2cccc(N3Cc4c(cc(N5CCN6CCC[C@@H]6C5)cc4C(F)(F)F)C3=O)c2)COC1 | >=1.76 | >=7.5 | >=1.76 | >=0.201 | >=7.5 | >=1.001 |  |  |  |  |  |  |
| < 100 | Cn1cnnc1CC1(c2cccc(N3Cc4c(cc(CN5CCOCC5)cc4C(F)(F)F)C3=O)c2)COC1 | 1.31 | >=7.5 | 1.31 | >=0.201 | 2.51 | >=1.001 |  |  |  |  |  |  |
| < 100 | Cn1cnnc1CC1(c2cccc(N3Cc4c(cc(CN5Cc6ccc(F)cc6C5)cc4C(F)(F)F)C3=O)c2)COC1 | 1.31 | >=7.5 | 1.31 | >=0.201 | 5 | >=1.001 |  |  |  |  |  |  |
| < 100 | COC1CCCN(Cc2cc3c(c(C(F)(F)F)c2)CN(c2cccc(C4(Cc5nncn5C)COC4)c2)C3=O)C1 (stereo unspecified) | 1.31 | >=7.5 | 1.51 | >=0.201 | >=7.5 | >=1.001 |  |  |  |  |  |  |
| < 100 | CN1C[C@@H]2C[C@H]1CN2c1cc2c(c(C(F)(F)F)c1)CN(c1cccc(C3(Cc4nncn4C)COC3)c1)C2=O (single isomer, unassigned) | 1.31 | >=7.5 | 1.31 | >=0.201 | >=7.5 | >=1.001 |  |  |  |  |  |  |
| < 100 | Cn1cc2c(n1)CCCN2Cc1cc2c(c(C(F)(F)F)c1)CN(c1cccc(C3(Cc4nncn4C)COC3)c1)C2=O | 1.01 | >=7.5 | 1.31 | >=0.201 | 5 | >=1.001 |  |  |  |  |  |  |
| < 100 | Cn1cnnc1CC1(c2cccc(N3Cc4c(cc(CN5CC[C@H](F)C5)nc4C4CC4)C3=O)c2)COC1 | 1.01 | 5 | 1.01 | 0.051 | 2.51 | 0.801 |  |  |  |  |  |  |
| < 100 | CN1CC2CCC1CN2c1cc2c(c(C(F)(F)F)c1)CN(c1cccc(C3(Cc4nncn4C)COC3)c1)C2=O (stereo unspecified) | 1.01 | 5 | 1.31 | >=0.201 | 2.51 | 0.801 |  |  |  |  |  |  |
